Data published in patent publication US4102884A, “14 β-Hydroxy 3-deoxycardenolides” (priority 1975, dated 1978).
pIC50: −log10 of the molar value. Entries after “also recorded” stand apart in the source; their conditions may differ. Where two headings read alike, the source gives them in different places.

What was measured:
[1] = system: spontaneously beating atrial preparations; test: Inotropic effect (increase in contractility) in spontaneously beating atrial preparations; parameters: species or system guinea pigs; settings: for EC (50% increase in contractility) / EC (30% increase in contractility) / EC (80% increase in contractility): Cavia porcellus; for EC (50% increase in contractility): read-out: Molar concentration causing 50% increase in contractility; for EC (30% increase in contractility): read-out: Molar concentration causing 30% increase in contractility; for EC (80% increase in contractility): read-out: Molar concentration causing 80% increase in contractility; for inotropic effect, comparison in words: compared with digoxin and/or 3-deoxycannogenol; for arrhythmogenicity relative to digoxin, in words: inotropic tests
Description: (§1) The inotropic effects have been determined with spontaneously beating atrial preparations derived from guinea pigs. The ATP-ase was obtained from the brain of the same animal and the methods of Okita et al (1973) and of Kupchan et al (1964) were employed. The lethal dose in cats was determined by the method of Chen.

[2] = Lipophilicity (statement in words); format: physicochemical
cats [3] = test: Lethal dose in cats, method of Chen; format: in vivo; settings: compared with digoxin
Description: as §1

cats [4] = test: Emetic effects in cats, intravenous; format: in vivo; settings: intravenous doses amounting to 1/10 and 1/100 of the lethal dose
heart muscle = system: heart muscle; parameters: species or system guinea pigs; settings: decreasing order of number of washings; inotropic tests
Description: as §1

heart = settings: literature; cited from earlier work
ATP-ase = ATP-ase inhibition, methods of Okita et al (1973) and Kupchan et al (1964); format: biochemical, guinea pigs (brain); parameters: ATP-ase inhibition, % reversibility of inhibition: concentration or dose not given beside the values; settings: for ATP-ase inhibition, % reversibility of inhibition / ATP-ase inhibition, % inhibition at a 1×10^-4 molar concentration: Table 2; for ATP-ase inhibition, comparison in words: compared with 3-deoxycannogenol and digoxin, or acetyl-strophanthidin
Description: as §1

[5] = cited from earlier work
[6] = Table I / Example 45, guinea pig atria
[7] = Table 2, preliminary biological tests, 30%

C[C@]12CC[C@H]3[C@@H](CC[C@@H]4CCCC[C@@]43CO)[C@@]1(O)CC[C@@H]2C1=CC(=O)OC1 [3-deoxycannogenol, 19-hydroxy-3-deoxydigitoxigenin]
dissociation of inotropic activity from ATP-ase inhibition and lethality, in words [1]: strong dissociation of inotropic activity from ATP-ase inhibition and lethality | EC (50% increase in contractility) [1, 6]: 1.1 µM | EC (30% increase in contractility) ([1]; Table I, guinea pig atria, 30%): 0.72 µM | EC (80% increase in contractility) ([1]; Table I, guinea pig atria): 1.95 µM | arrhythmia, in words ([1]; at doses causing an increase of 90% of contractile force): no arrhythmia were observed | inotropic effect, comparison in words [1]: considerably more strongly than digoxin; also recorded: strong inotropic effect | arrhythmogenicity relative to digoxin, in words [1]: considerably less arrhythomogenic than digoxin | times more inotropic than digoxin ([1]; molar basis, relative to digoxin): 2-4 times | lipophilicity, in words [2]: considerably more lipohilic than the 19-oxygenated cardenolides obtained from natural sources | toxicity relative to digoxin (lethal dose), in words (cats [3]; cats): substantially lower than that of digoxin; also recorded: less than half as toxic as digoxin | therapeutic index, in words (cats [3]): better therapeutic index | emetic effects (cats [4]): no emetic effects | number of washings to remove the compound from the bath / ease of removal (heart muscle): more readily removed from the bath, containing the heart muscle, by repeated washing, than digoxin and less readily than the more polar strophanthidin 3-acetate; also recorded: digitoxin > digoxin > 3-deoxycannogenol > 14,19-dihydroxy-5β,14β-carda-3,20(22)-dienolide > strophanthidin 3-acetate

C[C@@H]1O[C@@H](OC2CC[C@@]3(CO)[C@@H](CC[C@@H]4[C@@H]3[C@@H](O)C[C@]3(C)[C@@H](C5=CC(=O)OC5)CC[C@]43O)C2)[C@H](O)[C@H](O)[C@H]1O (stereo partly drawn) [panoside]
cardiac activity, in words (heart): high cardiac activity; also recorded: highly potent

C[C@]12CC[C@H]3[C@@H](CC[C@H]4C=CCC[C@@]43CO)[C@@]1(O)CC[C@@H]2C1=CC(=O)OC1
Molar concentration causing 30% increase in contractility [1, 7]: inactive | ATP-ase inhibition, % reversibility of inhibition (ATP-ase): 81% | ATP-ase inhibition, % inhibition at a 1×10^-4 molar concentration (ATP-ase): 63%

C[C@]12CC[C@H]3[C@@H](CC[C@@H]4C=CCC[C@@]43CO)[C@@]1(O)CC[C@@H]2C1=CC(=O)OC1 [14,19-dihydroxy-5β,14β-carda-3,20(22)-dienolide]
EC (50% increase in contractility) [1, 6]: 2.8 µM | EC (30% increase in contractility) ([1]; Table I, guinea pig atria, 30%): 2.2 µM | EC (80% increase in contractility) ([1]; Table I, guinea pig atria): 4 µM | inotropic effect, comparison in words [1]: generally between those of 3-deoxycannogenol and digoxin | inotropic effect, comparison in words ([1]; listed as 3(4)-anhydrocannogenol): greater inotropic activity than digoxin, though it is less active than 3-deoxycannogenol | arrhythmogenicity relative to digoxin, in words [1]: considerably less arrhythomogenic than digoxin | number of washings to remove the compound from the bath / ease of removal (heart muscle): digitoxin > digoxin > 3-deoxycannogenol > 14,19-dihydroxy-5β,14β-carda-3,20(22)-dienolide > strophanthidin 3-acetate | toxicity relative to digoxin, in words (ATP-ase; basis not stated, only ATP-ase inhibition tabulated): appears to be less toxic than digoxin | ATP-ase inhibition, comparison in words (ATP-ase): generally between those of 3-deoxycannogenol and digoxin

C[C@]12CCCC[C@H]1CC[C@@H]1[C@@H]2C[C@@H](O)[C@]2(C)[C@@H](C3=CC(=O)OC3)CC[C@]12O [3-deoxydigoxigenin]
EC (50% increase in contractility) [1, 6]: 7.6 µM | inotropic effect, comparison in words [1]: comparable biological and inotropic effects | arrhythmogenicity relative to digoxin, in words [1]: much less arrhythomogenic relative to the anitropic activity than digoxin | ATP-ase inhibition, comparison in words (ATP-ase): comparable biological and inotropic effects and the ATP-ase inhibition as the 19-deoxygenated steroid acetyl-strophanthidin | pIC50 (ATP-ase; guinea pig brain ATP-ase, read-out: Molar concentration causing 50% ATP-ase inhibition): 4.17

C[C@]12CC[C@H]3[C@@H](CC[C@@H]4C=CCC[C@@]43COC=O)[C@@]1(O)CC[C@@H]2C1=CC(=O)OC1
ATP-ase inhibition, % reversibility of inhibition (ATP-ase): 84% | ATP-ase inhibition, % inhibition at a 1×10^-4 molar concentration (ATP-ase): 41%

C[C@]12CCCC[C@H]1CC[C@@H]1[C@@H]2CC[C@]2(C)[C@@H](C3=CC(=O)OC3)CC[C@]12O [3-deoxydigitoxigenin, 14-hydroxy-5β,14β-card-20(22)-enolide]
cardiac activity, in words (heart): significantly less active than digitoxigenin

C[C@]12CC[C@H]3[C@@H](CC[C@H]4CCCC[C@@]43COC=O)[C@@]1(O)CC[C@@H]2C1=CC(=O)OC1
EC (30% increase in contractility) [1, 7]: 50 µM | ATP-ase inhibition, % reversibility of inhibition (ATP-ase): 95% | ATP-ase inhibition, % inhibition at a 1×10^-4 molar concentration (ATP-ase): 42%

C[C@]12CC[C@H]3[C@@H](CC[C@@H]4CCCC[C@@]43COC=O)[C@@]1(O)CC[C@@H]2C1=CC(=O)OC1 [drawing 19]
EC (30% increase in contractility) [1, 7]: 2.9 µM

C[C@H]1O[C@@H](O[C@H]2[C@@H](O)C[C@H](O[C@H]3[C@@H](O)C[C@H](O[C@H]4CC[C@@]5(C)[C@H](CC[C@@H]6[C@@H]5CC[C@]5(C)[C@@H](C7=CC(=O)OC7)CC[C@]65O)C4)O[C@@H]3C)O[C@@H]2C)C[C@H](O)[C@@H]1O [digitoxin, reference compound]
number of washings to remove the compound from the bath / ease of removal (heart muscle): digitoxin > digoxin > 3-deoxycannogenol > 14,19-dihydroxy-5β,14β-carda-3,20(22)-dienolide > strophanthidin 3-acetate

C[C@]12CC[C@@H]3[C@H]4CCCC[C@H]4CC[C@H]3[C@@]1(O)CC[C@@H]2C1=CC(=O)OC1 [19-nor analog, 14-hydroxy-19-nor-5β,14β-card-20(22)-enolide]
heart-activity, in words [1]: substantial heart-activities

CC(=O)O[C@@H]1C[C@]2(O)[C@H](CC[C@]3(C)[C@@H](c4ccc(=O)oc4)CC[C@@]32O)[C@@]2(C)CC[C@H](O)C=C12 [scillirosidin]
cardiac activity, in words (heart): high cardiac activity

C[C@]12CC[C@H]3[C@@H](CC[C@@H]4CCCC[C@@]43COC=O)[C@@]1(O)CC[C@@H]2C1=CC(=O)OC1 [19-formate of 3-deoxycannogenol, 19-formyloxy-14-hydroxy-5β,14β-card-20(22)-enolide]
inotropic effect, comparison in words [1]: substantial inotropic activity which equals about that of digoxin | inotropic effect, comparison in words ([1]; listed as 19-formate ester of 3-deoxycannogenol): less active than 3-deoxycannogenol | lipophilicity, in words [2]: more lipophilic

C[C@]12CC[C@H]3[C@@H](CC[C@@H]4CCCC[C@@]43CO)[C@@]1(O)CC[C@@H]2C1COC(=O)C1 (stereo partly drawn) [drawing 21]
EC (30% increase in contractility) [1, 7]: 18.5 µM | EC (50% increase in contractility) ([1]; Table 2, preliminary biological tests): 40 µM | ATP-ase inhibition, % reversibility of inhibition (ATP-ase): 57% | ATP-ase inhibition, % inhibition at a 1×10^-4 molar concentration (ATP-ase): 45%

CC(=O)O[C@H]1CC[C@]2(C=O)[C@H]3CC[C@]4(C)[C@@H](C5=CC(=O)OC5)CC[C@]4(O)[C@@H]3CC[C@]2(O)C1 [strophanthidin 3-acetate]
intravenous activity, onset and duration, in words [5]: high intravenous activity, fast onset and short duration of activity | oral activity, in words [5]: rather low oral activity | number of washings to remove the compound from the bath / ease of removal (heart muscle): digitoxin > digoxin > 3-deoxycannogenol > 14,19-dihydroxy-5β,14β-carda-3,20(22)-dienolide > strophanthidin 3-acetate

CO[C@H]1C[C@H](O[C@H]2CC[C@]3(C)[C@H]4CC[C@]5(C)[C@@H](C6=CC(=O)OC6)CC[C@]5(O)[C@@H]4CC[C@]3(O)C2)O[C@H](C)[C@H]1O [cymaroside of 5β-hydroxydigitoxigenin]
cardiac activity, in words (heart): nearly twice as active as the cymaroside of digitoxigenin

C[C@@H]1O[C@@H](O[C@H]2C[C@@H](O)[C@]3(CO)[C@H]4[C@H](O)C[C@]5(C)[C@@H](C6=CC(=O)OC6)CC[C@]5(O)[C@@H]4CC[C@]3(O)C2)[C@H](O)[C@H](O)[C@H]1O [ouabain]
intravenous activity, onset and duration, in words [5]: high intravenous activity, fast onset and short duration of activity | oral activity, in words [5]: rather low oral activity

C[C@]12CC[C@H]3[C@@H](CC[C@@H]4CCCC[C@@]43CO)[C@@]1(O)CC[C@@H]2C1COC(=O)C1 (stereo partly drawn) [20(22)-dihydro analog, 3-deoxy-20.xi.,22-dihydrocannogenol]
heart-activity, in words [1]: substantial heart-activities

C[C@]12CC[C@@H]3[C@H]4CCCC[C@H]4CC[C@H]3[C@@]1(O)CC[C@@H]2C1=CC(=O)OC1 [drawing 23]
ATP-ase inhibition, % reversibility of inhibition (ATP-ase): 76% | ATP-ase inhibition, % inhibition at a 1×10^-4 molar concentration (ATP-ase): 59%
